Measurements published in patent publication US20250042914A1, “PIKFYVE KINASE INHIBITOR” (HANMI PHARM. CO., LTD., priority 2021, published 2025).
Where a name gives a salt, the structure may show the parent alone.

What follows are compounds tested against human-derived PIKfyve kinase (Homo sapiens (Human), UniProt Q9Y2I7) (assay: PIKfyve enzyme inhibition assay (ADP-Glo)). Conditions: PIKfyve enzyme inhibitory assay; PI(3)P 10 μm, ATP 2 μm, 60 minutes.
Format: biochemical
Experimental: For each of the compounds prepared in Examples 1 to 33, the PIKfyve enzyme inhibitory activity was measured by using a QS S Assis PIKFYVE (PIP5K3)_ADP-Glo™ Kit (Cat. #11-118) made by Carna Bioscience. 5 μL of each of human-derived PIKfyve kinase, PI(3)P, and ATP solution was added to a 384-well plate (such that final concentrations of each solution are 375 ng/ml, 10 μm, and 2 μm, respectively). The compound to be evaluated underwent serial dilution according to the set concentrations, and 5 μL of the diluted solution was added to each well and caused a reaction for 60 minutes. MgCl2 was mixed in ADP-Glo™ solution (Promega, Cat. #V9102) to a final concentration of 100 mM, and 20 μL of the mixed solution was added to each well and caused a reaction at room temperature for 40 minutes. 40 μL of kinase detection solution was added to each well and caused a reaction at room temperature for 40 minutes. Then, the luminescence signals were detected by using a Synergy™ NEO microplate analyzer. Well to which no enzyme was added were used as a negative control, whereas wells to which no drug was added were used as a positive control, so as to calculate the enzyme inhibitory ability (%) of drugs. The 50% inhibitor concentration (IC50) values were calculated by using a GraphPad Prism software.
In Table 1, when the case where the IC50 value was 50 nM or less was indicated as A, the case where the IC50 value was greater than 50 nM but equal to or less than 100 nM was indicated as B, and the case where the IC50 value was greater than 100 nM was indicated as C.

Chain of human-derived PIKfyve kinase (Q9Y2I7 whole entry): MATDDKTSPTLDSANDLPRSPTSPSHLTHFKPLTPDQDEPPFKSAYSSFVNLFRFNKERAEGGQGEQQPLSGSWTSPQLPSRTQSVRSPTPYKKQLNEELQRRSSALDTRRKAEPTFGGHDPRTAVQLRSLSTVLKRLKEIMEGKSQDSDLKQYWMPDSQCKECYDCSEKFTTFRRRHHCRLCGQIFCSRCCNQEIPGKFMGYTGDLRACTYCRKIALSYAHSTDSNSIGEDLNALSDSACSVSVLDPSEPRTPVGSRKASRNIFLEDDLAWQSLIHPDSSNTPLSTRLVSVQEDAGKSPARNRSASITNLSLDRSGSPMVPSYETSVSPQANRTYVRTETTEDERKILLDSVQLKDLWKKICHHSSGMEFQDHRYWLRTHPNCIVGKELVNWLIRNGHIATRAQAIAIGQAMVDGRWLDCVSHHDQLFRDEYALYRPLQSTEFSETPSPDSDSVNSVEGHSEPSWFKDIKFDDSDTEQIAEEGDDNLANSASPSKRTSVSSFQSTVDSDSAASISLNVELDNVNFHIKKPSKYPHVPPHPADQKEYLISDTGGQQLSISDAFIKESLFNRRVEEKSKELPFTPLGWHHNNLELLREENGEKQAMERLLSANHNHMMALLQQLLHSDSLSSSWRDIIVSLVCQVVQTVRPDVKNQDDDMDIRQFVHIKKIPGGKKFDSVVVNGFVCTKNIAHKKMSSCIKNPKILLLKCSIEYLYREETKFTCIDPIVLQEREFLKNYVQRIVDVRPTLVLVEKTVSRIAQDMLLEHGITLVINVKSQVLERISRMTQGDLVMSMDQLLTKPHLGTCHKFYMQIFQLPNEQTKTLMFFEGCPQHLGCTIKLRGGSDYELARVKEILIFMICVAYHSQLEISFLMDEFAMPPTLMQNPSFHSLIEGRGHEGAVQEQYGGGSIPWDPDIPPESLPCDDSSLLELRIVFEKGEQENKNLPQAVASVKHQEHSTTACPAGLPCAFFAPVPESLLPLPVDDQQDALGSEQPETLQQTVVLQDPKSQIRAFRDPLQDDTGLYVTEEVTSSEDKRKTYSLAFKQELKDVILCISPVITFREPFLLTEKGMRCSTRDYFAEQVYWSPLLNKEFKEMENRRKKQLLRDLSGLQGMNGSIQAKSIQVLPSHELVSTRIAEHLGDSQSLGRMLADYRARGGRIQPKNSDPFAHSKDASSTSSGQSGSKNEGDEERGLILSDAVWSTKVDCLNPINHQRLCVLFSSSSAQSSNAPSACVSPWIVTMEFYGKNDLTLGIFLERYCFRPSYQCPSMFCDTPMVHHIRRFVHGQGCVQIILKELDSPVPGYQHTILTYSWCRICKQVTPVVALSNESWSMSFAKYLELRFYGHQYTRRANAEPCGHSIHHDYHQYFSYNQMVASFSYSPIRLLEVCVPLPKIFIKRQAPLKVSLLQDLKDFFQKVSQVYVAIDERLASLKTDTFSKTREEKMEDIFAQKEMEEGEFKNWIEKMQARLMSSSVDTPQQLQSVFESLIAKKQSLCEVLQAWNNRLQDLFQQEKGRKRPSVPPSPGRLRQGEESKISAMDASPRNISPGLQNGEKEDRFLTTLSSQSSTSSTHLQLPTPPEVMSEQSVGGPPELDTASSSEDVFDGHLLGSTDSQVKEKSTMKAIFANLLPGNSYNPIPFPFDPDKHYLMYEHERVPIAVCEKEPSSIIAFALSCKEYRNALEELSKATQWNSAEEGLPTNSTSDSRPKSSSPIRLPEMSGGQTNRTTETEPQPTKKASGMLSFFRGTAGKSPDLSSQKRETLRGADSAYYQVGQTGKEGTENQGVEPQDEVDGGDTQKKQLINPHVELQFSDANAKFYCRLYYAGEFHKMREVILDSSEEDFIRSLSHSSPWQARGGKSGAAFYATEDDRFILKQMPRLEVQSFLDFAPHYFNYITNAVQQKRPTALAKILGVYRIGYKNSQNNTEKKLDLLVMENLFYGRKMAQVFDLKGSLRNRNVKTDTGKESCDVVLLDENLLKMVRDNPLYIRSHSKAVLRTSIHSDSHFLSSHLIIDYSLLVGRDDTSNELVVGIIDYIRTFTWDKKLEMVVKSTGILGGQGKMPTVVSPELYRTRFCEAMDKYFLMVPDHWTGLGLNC

| IC50 | Structure (SMILES) |
| --- | --- |
| ≤ 50 nM | O=C(Nc1cccc(-c2nc(N3CCOCC3)c3sc(-c4ccncc4)cc3n2)c1)c1ccncc1 [Example 1, N-(3-(4-morpholino-6-(pyridin-4-yl)thieno[3,2-d]pyrimidin-2-yl)phenyl)isonicotinamide] |
| ≤ 50 nM | O=C(Nc1cccc(-c2nc(N3CCOCC3)c3sc(-c4cccnc4)cc3n2)c1)c1ccncc1 [Example 2, N-(3-(4-morpholino-6-(pyridin-3-yl)thieno[3,2-d]pyrimidin-2-yl)phenyl)isonicotinamide] |
| ≤ 50 nM | O=C(Nc1cccc(-c2nc(N3CCOCC3)c3sc(-c4cnco4)cc3n2)c1)c1ccncc1 [Example 3, N-(3-(4-morpholino-6-(oxazol-5-yl)thieno[3,2-d]pyrimidin-2-yl)phenyl)isonicotinamide] |
| ≤ 50 nM | O=C(Nc1cccc(-c2nc(N3CCOCC3)c3sc(-c4ccncc4)cc3n2)c1)c1cccnc1 [Example 4, N-(3-(4-morpholino-6-(pyridin-4-yl)thieno[3,2-d]pyrimidin-2-yl)phenyl)nicotinamide] |
| ≤ 50 nM | O=C(Nc1cccc(-c2nc(N3CCOCC3)c3sc(-c4cccnc4)cc3n2)c1)c1cccnc1 [Example 5, N-(3-(4-morpholino-6-(pyridin-3-yl)thieno[3,2-d]pyrimidin-2-yl)phenyl)nicotinamide] |
| ≤ 50 nM | Nc1ccc(-c2cc3nc(-c4cccc(NC(=O)c5cccnc5)c4)nc(N4CCOCC4)c3s2)cc1 [Example 6, N-(3-(6-(4-aminophenyl)-4-morpholinothieno[3,2-d]pyrimidin-2-yl)phenyl)nicotinamide hydrochloride] |
| ≤ 50 nM | O=C(Nc1cccc(-c2nc(N3CCOCC3)c3sc(-c4cnco4)cc3n2)c1)c1cccnc1 [Example 7, N-(3-(4-morpholino-6-(oxazol-5-yl)thieno[3,2-d]pyrimidin-2-yl)phenyl)nicotinamide] |
| ≤ 50 nM | O=C(Nc1cccc(-c2nc(N3CCOCC3)c3sc(-c4ccnc5[nH]ccc45)cc3n2)c1)c1cccnc1 [Example 9, N-(3-(4-morpholino-6-(1H-pyrrolo[2,3-b]pyridin-4-yl)thieno[3,2-d]pyrimidin-2-yl)phenyl)nicotinamide] |
| 50 to 100 nM | O=C(Nc1cccc(-c2nc(N3CCOCC3)c3sc(-c4ccnc5[nH]ncc45)cc3n2)c1)c1cccnc1 [Example 10, N-(3-(4-morpholino-6-(1H-pyrazolo[3,4-b]pyridin-4-yl)thieno[3,2-d]pyrimidin-2-yl)phenyl)nicotinamide] |
| > 100 nM | O=C(Nc1cccc(-c2nc(N3CCOCC3)c3sc(-c4cncc5[nH]ccc45)cc3n2)c1)c1cccnc1 [Example 11, N-(3-(4-morpholino-6-(1H-pyrrolo[2,3-c]pyridin-4-yl)thieno[3,2-d]pyrimidin-2-yl)phenyl)nicotinamide] |
| ≤ 50 nM | O=C(Nc1cccc(-c2nc(N3CCOCC3)c3sc(-c4cccnc4)cc3n2)c1)c1cocn1 [Example 12, N-(3-(4-morpholino-6-(pyridin-3-yl)thieno[3,2-d]pyrimidin-2-yl)phenyl) oxazole-4-carboxamide] |
| ≤ 50 nM | O=C(Nc1cccc(-c2nc(N3CCOCC3)c3sc(-c4cccnc4)cc3n2)c1)c1cnco1 [Example 13, N-(3-(4-morpholino-6-(pyridin-3-yl)thieno[3,2-d]pyrimidin-2-yl)phenyl) oxazole-5-carboxamide] |
| ≤ 50 nM | O=C(Nc1cccc(-c2nc(N3CCOCC3)c3sc(-c4cccnc4)cc3n2)c1)c1ncco1 [Example 14, N-(3-(4-morpholino-6-(pyridin-3-yl)thieno[3,2-d]pyrimidin-2-yl)phenyl) oxazole-2-carboxamide] |
| 50 to 100 nM | Cc1ncc(C(=O)Nc2cccc(-c3nc(N4CCOCC4)c4sc(-c5cccnc5)cc4n3)c2)o1 [Example 15, 2-methyl-N-(3-(4-morpholino-6-(pyridin-3-yl)thieno[3,2-d]pyrimidin-2-yl)phenyl) oxazole-5-carboxamide] |
| ≤ 50 nM | Cc1ncoc1C(=O)Nc1cccc(-c2nc(N3CCOCC3)c3sc(-c4cccnc4)cc3n2)c1 [Example 16, 4-methyl-N-(3-(4-morpholino-6-(pyridin-3-yl)thieno[3,2-d]pyrimidin-2-yl)phenyl) oxazole-5-carboxamide] |
| ≤ 50 nM | Cc1nc(C)c(C(=O)Nc2cccc(-c3nc(N4CCOCC4)c4sc(-c5cccnc5)cc4n3)c2)o1 [Example 17, 2,4-dimethyl-N-(3-(4-morpholino-6-(pyridin-3-yl)thieno[3,2-d]pyrimidin-2-yl)phenyl) oxazole-5-carboxamide] |

| IC50 | Structure (SMILES) |
| --- | --- |
| > 100 nM | O=C(Nc1cccc(-c2nc(N3CCOCC3)c3sc(-c4cccnc4)cc3n2)c1)c1cscn1 [Example 18, N-(3-(4-morpholino-6-(pyridin-3-yl)thieno[3,2-d]pyrimidin-2-yl)phenyl) thiazole-4-carboxamide] |
| ≤ 50 nM | O=C(Nc1cccc(-c2nc(N3CCOCC3)c3sc(-c4cccnc4)cc3n2)c1)c1cncs1 [Example 19, N-(3-(4-morpholino-6-(pyridin-3-yl)thieno[3,2-d]pyrimidin-2-yl)phenyl) thiazole-5-carboxamide] |
| > 100 nM | O=C(Nc1cccc(-c2nc(N3CCOCC3)c3sc(-c4cccnc4)cc3n2)c1)c1nccs1 [Example 20, N-(3-(4-morpholino-6-(pyridin-3-yl)thieno[3,2-d]pyrimidin-2-yl)phenyl) thiazole-2-carboxamide] |
| ≤ 50 nM | Cc1ncc(C(=O)Nc2cccc(-c3nc(N4CCOCC4)c4sc(-c5cccnc5)cc4n3)c2)s1 [Example 21, 2-methyl-N-(3-(4-morpholino-6-(pyridin-3-yl)thieno[3,2-d]pyrimidin-2-yl)phenyl) thiazole-5-carboxamide] |
| ≤ 50 nM | Cc1ncsc1C(=O)Nc1cccc(-c2nc(N3CCOCC3)c3sc(-c4cccnc4)cc3n2)c1 [Example 22, 4-methyl-N-(3-(4-morpholino-6-(pyridin-3-yl)thieno[3,2-d]pyrimidin-2-yl)phenyl) thiazole-5-carboxamide] |
| 50 to 100 nM | Cc1nc(C)c(C(=O)Nc2cccc(-c3nc(N4CCOCC4)c4sc(-c5cccnc5)cc4n3)c2)s1 [Example 23, 2,4-dimethyl-N-(3-(4-morpholino-6-(pyridin-3-yl)thieno[3,2-d]pyrimidin-2-yl)phenyl) thiazole-5-carboxamide] |
| ≤ 50 nM | O=C(Nc1cccc(-c2nc(N3CCOCC3)c3sc(-c4cccnc4)cc3n2)c1)C1CCCNC1 (centres unmarked) [Example 24, N-(3-(4-morpholino-6-(pyridin-3-yl)thieno[3,2-d]pyrimidin-2-yl)phenyl)piperidine-3-carboxamide] |
| ≤ 50 nM | O=C(Nc1cccc(-c2nc(N3CCOCC3)c3sc(-c4cccnc4)cc3n2)c1)C1CCNCC1 [Example 25, N-(3-(4-morpholino-6-(pyridin-3-yl)thieno[3,2-d]pyrimidin-2-yl)phenyl)piperidine-4-carboxamide] |
| 50 to 100 nM | O=C(Nc1cccc(-c2nc(N3CCOCC3)c3sc(-c4cccnc4)cc3n2)c1)C1CCN(CCO)CC1 [Example 26, 1-(2-hydroxyethyl)-N-(3-(4-morpholino-6-(pyridin-3-yl)thieno[3,2-d]pyrimidin-2-yl)phenyl)piperidine-4-carboxamide] |
| 50 to 100 nM | COCCN1CCC(C(=O)Nc2cccc(-c3nc(N4CCOCC4)c4sc(-c5cccnc5)cc4n3)c2)CC1 [Example 27, 1-(2-methoxyethyl)-N-(3-(4-morpholino-6-(pyridin-3-yl)thieno[3,2-d]pyrimidin-2-yl)phenyl)piperidine-4-carboxamide] |
| > 100 nM | O=CN1CCC(C(=O)Nc2cccc(-c3nc(N4CCOCC4)c4sc(-c5cccnc5)cc4n3)c2)CC1 [Example 28, 1-formyl-N-(3-(4-morpholino-6-(pyridin-3-yl)thieno[3,2-d]pyrimidin-2-yl)phenyl)piperidine-4-carboxamide] |
| > 100 nM | CC(=O)N1CCC(C(=O)Nc2cccc(-c3nc(N4CCOCC4)c4sc(-c5cccnc5)cc4n3)c2)CC1 [Example 29, 1-acetyl-N-(3-(4-morpholino-6-(pyridin-3-yl)thieno[3,2-d]pyrimidin-2-yl)phenyl)piperidine-4-carboxamide] |
| > 100 nM | COC(=O)N1CCC(C(=O)Nc2cccc(-c3nc(N4CCOCC4)c4sc(-c5cccnc5)cc4n3)c2)CC1 [Example 30, methyl 4-((3-(4-morpholino-6-(pyridin-3-yl)thieno[3,2-d]pyrimidin-2-yl)phenyl)carbamoyl)piperidine-1-carboxylate] |
| ≤ 50 nM | CCOC(=O)N1CCC(C(=O)Nc2cccc(-c3nc(N4CCOCC4)c4sc(-c5cccnc5)cc4n3)c2)CC1 [Example 31, ethyl 4-((3-(4-morpholino-6-(pyridin-3-yl)thieno[3,2-d]pyrimidin-2-yl)phenyl)carbamoyl)piperidine-1-carboxylate] |
| ≤ 50 nM | O=C(Nc1cccc(-c2nc(N3CCOCC3)c3sc(-c4cccnc4)cc3n2)c1)[C@H]1CC[C@@H](O)CC1 [Example 32, (1s,4s)-4-hydroxy-N-(3-(4-morpholino-6-(pyridin-3-yl)thieno[3,2-d]pyrimidin-2-yl)phenyl)cyclohexane-1-carboxamide] |
| ≤ 50 nM | O=C(Nc1cccc(-c2nc(N3CCOCC3)c3sc(-c4cnco4)cc3n2)c1)c1cocn1 [Example 33, N-(3-(4-morpholino-6-(oxazol-5-yl)thieno[3,2-d]pyrimidin-2-yl)phenyl)oxazole-4-carboxamide] |
